Data taken from patent US20190224166A1, “Compositions and Methods for Treating Muscle Loss” (Augusta University Research Institute, Inc., priority 2018, published 2019).
Entries after “also recorded” stand apart in the source; their conditions may differ.

What was measured:
[1] = system: tibialis anterior; assay: Muscle ROS by Amplex red assay in aged mice treated with 1-methyl-D-tryptophan; format: in vivo
Experimental: (§1) Female mice 22 months of age were obtained from the National Institute on Aging and treated with saline (vehicle) or 1-methyl-D-tryptophan (1-MT, Sigma, 452483, lot#MKBZ1441V) at a low dose (10 mg/kg BW) or at a high dose (100 mg/kg BW). Mice were treated daily for 4 weeks. Treatments were administered i.p. with an injection volume of 0.2 ml following IACUC approved procedures. Mice were euthanized by CO2 overdose and muscles harvested for analysis. One quadriceps muscle was snap frozen for proteomics and the other quadriceps muscle fixed in buffered formalin for paraffin embedding and trichrome staining. The tibialis anterior was placed in PBS for amplex red assay.

[2] = system: quadriceps muscle; assay: Proteomic analysis of quadriceps muscle of aged mice treated with 1-methyl-D-tryptophan (Table 1, TOPPGENE enrichment); format: in vivo
Experimental: as §1
The IDO inhibitor, 1-methyl-D-tryptophan, blocks kynurenine production and reduces levels of ROS in muscle.

[3] = system: human myoblasts; assay: ROS in human myoblasts treated with kynurenine; format: cell-based
Experimental: (§2) This example investigated the relationship between kynurenine, a circulating tryptophan metabolite which increases with age, and markers of muscle oxidative stress. C2C12 myoblasts were treated with kynurenine in a dose-dependent manner (0, 1, 10 μM) and reactive oxygen species (“ROS”) was measured using an Amplex red assay. Human myoblasts were also treated with kynurenine (100 μM) and ROS was measured. Female C57BL/6 mice 6 months of age were treated with kynurenine (10 mg/kg BW) or with saline (vehicle control) for 4 weeks. Muscle mass and fiber size were measured from the quadriceps femoris ex vivo, and ROS was measured from paraffin-embedded muscle sections using immunostaining for 4HNE.

[4] = system: quadriceps femoris; assay: Muscle mass and fiber size of quadriceps femoris ex vivo, mice treated with kynurenine for 4 weeks; format: in vivo, C57BL/6 mice; settings: young mice, kynurenine 10 mg/kg BW
Experimental: as §2

[5] = system: quadriceps femoris; assay: Muscle ROS by 4HNE immunostaining of paraffin-embedded muscle sections, mice treated with kynurenine; format: in vivo, C57BL/6 mice; settings: young mice, kynurenine 10 mg/kg BW, 4 weeks, P<0.05
Experimental: as §2

[6] = system: C2C12 myoblasts; assay: ROS by Amplex red assay in C2C12 myoblasts treated with kynurenine; format: cell-based
Experimental: as §2

[7] = aged mice, 1-methyl-D-tryptophan treatment
[8] = aged mouse muscle after 1-methyl-D-tryptophan treatment

Compound	levels of ROS in muscle (Amplex red assay) ([1]; 1-methyl-D-tryptophan i.p. daily for 4 weeks)	kynurenine production ([1]; 1-methyl-D-tryptophan treatment)	factors associated with muscle oxidative stress (proteomic analysis) [2, 7]	levels of myosin 4 (proteomic analysis) [2, 7]	factors associated with muscle degradation (ubiquitin ligases) and oxidative stress (TOPPGENE enrichment of downregulated proteins) [2, 8]	factors associated with muscle protein synthesis (TOPPGENE enrichment of upregulated proteins) [2, 8]	ROS ([3]; 100 μM kynurenine)	reactive oxygen species ([3]; 10 μm kynurenine, FIG. 1B)	quadriceps weight relative to body weight, reduction compared to controls [4] [%]	muscle fiber size compared to controls ([4]; P<0.01)	ROS increase based on 4HNE staining, compared to control [5] [%]	reactive oxygen species (H2O2 concentration/protein concentration) ([6]; 1 μm and 10 μm kynurenine, FIG. 1A)	ROS increase ([6]; kynurenine at both low and high concentrations (1, 10 μM), P<0.01) [fold]
Cn1cc(C[C@@H](N)C(=O)O)c2ccccc21 [1-methyl-D-tryptophan, reference compound]	decrease	blocks	reduced; also recorded: decreases	increases	decreased levels	increased levels	–	–	–	–	–	–	–
Nc1ccccc1C(=O)CC(N)C(=O)O (stereo not shown) [kynurenine]	–	–	–	–	–	–	increased	increases	10	significantly lower	20	increases	2
